Results taken from patent US5700776A, “Medicaments comprising glicentin as active ingredient” (Nisshin Flour Milling Co., Ltd., priority 1992, dated 1997).

Experiments:
[1] = tested on: arginine loaded dogs; test: Infusion of glicentin and glucagon into the pancreatic artery of arginine loaded dogs; plasma hormones and blood glucose; assay type: in vivo, dog; details: glicentin 100 pmol or 400 pmol infused into pancreatic artery for 10 minutes
Protocol: Healthy mongrel dogs weighing 13 to 17 kg were subjected to the test after an overnight fast (A. Ohneda et al., Horm. Metab. Res., 9, 447-452 (1977)).
The animals were anesthetized with sodium pentobarbital (Nembutal®) and their abdomens were opened. […] After the operation was completed, saline solution containing 0.5% arginine was infused into the pancreatic artery at a constant rate of 2 ml/min through the cannula using an infusion pump. […] 4 ml portions of blood samples for hormone assay were collected at various intervals into a glass tube containing 1000 KIU aprotinine and 10 mg EDTA.
The plasma insulin was measured in accordance with a known method mentioned in C.
The blood glucose was measured for blood drawn from the femoral artery by the glucose oxidase method using a test kit for the determination of blood glucose (available from Wako Pure Chemical Industries, Japan under the trade name of "Glucose B-Test Wako").

[2] = tested on: male MALB/c mice; test: Intraperitoneal administration to mice, observation of appearance; assay type: in vivo; details: 10 mg/kg intraperitoneally, male MALB/c mice (6 weeks age)

“human glicentin (natural type): peptide of 69 amino acid residues, SEQ ID NO:2, produced by genetic engineering in E. coli” was tested, and the “insulin secretion (plasma insulin, IRI)” value ([1]; anesthetized dogs under 0.5% arginine infusion) was “stimulates insulin secretion”, the “glucagon level (IRG(G 21))” value ([1]; antiserum G 21) was “not increased” and the blood glucose levels ([1]; blood from femoral artery, glucose oxidase method) was “no change in blood glucose levels”. For the same substance, the change in appearance [2] was “no change in appearance”.
